Source: patent publication US20160058806A1, “METHOD FOR STIMULATING INTESTINAL BARRIER INTEGRITY AFTER NON-NATURAL BIRTH” (N.V. Nutricia, priority 2005, published 2016)

Legend:
[1] = tested on: intestinal epithelial cell lines T84; experiment: Effect of LC-PUFA on spontaneous barrier integrity of T84 monolayers (TER and 4 kD FITC dextran flux); format: cell-based; settings: result in words
Description: (§1) Monolayers (MC) of intestinal epithelial cell lines T84 were incubated in the luminal compartment with different 100 μM polyunsaturated fatty acids ARA (arachidonic acid; 5,8,11,14-eicosatetraenoic acid), DHA (cis-4,7,10,13,16,19 docosahexaenoic acid), EPA (eicosapentaenoic acid) or control palmiiic (C 16:0) acid (Palm) (Sigma, St. Louis, USA) for 0, 24, 48 and 72 hr. The epithelial barrier function was determined by measuring the transepithelial resistance (TER, Ωcm^2) by epithelial volt-ohm meter (EVOM; World Precision Instruments, Germany) and permeability for 4 kD FITC dextran (paracellular permeability marker, Sigma, USA).

[2] = tested on: intestinal epithelial cell lines T84; experiment: Effect of LC-PUFA on IL-4 mediated barrier disruption of T84 monolayers (TER and permeability); format: cell-based; settings: IL-4 2 ng/ml; fatty acid 100 μM, mucosal compartment; 48 hr pre-incubation + 48 hr co-incubation
Description: as §1
Monolayers (MC) of intestinal epithelial cell lines T84 were incubated in the presence of IL-4 (2 ng/ml, scrosal compartment, Sigma, USA) with or without polyunsaturated fatty acids ARA, DHA, GLA, EPA, or control palmitic acid (10 μM or 100 μM, mucosal compartment, Sigma, St. Louis, USA). Cells were pre-incubated with ARA, DHA, EPA, or palmitic acid for 48 hr prior to the IL-4 incubation. The co-incubation of PUFA's and palmitic acid with IL-4 was continued for another 48 hr, while culture medium and additives were changed every 24 hr. The epithelial barrier function was determined by measuring the transepithelial resistance (TER) and permeability as described in example 2.

Row | SMILES | effect on basal barrier integrity resistance and flux [1] | IL-4 Flux [2] | IL-4 TER [2]
1 | CCCCC/C=C\C/C=C\C/C=C\CCCCC(=O)O [GLA, gamma-linolenic acid] | positive effect | – | –
2 | CC/C=C\C/C=C\C/C=C\C/C=C\C/C=C\CCCC(=O)O [EPA, eicosapentaenoic acid] | – | 228 | 539
3 | CCCCCC=CCC=CCC=CCC=CCCCC(=O)O [ARA, 5,8,11,14-eicosatetraenoic acid] | – | 218 | 636
4 | CCCCCCCCCCCCCCCC(=O)O [Palmitic acid, palmitic acid, reference compound] | – | 777 | 321
